pIC50: −log10 of the molar value.
How the values were obtained:
Type in all cases: cell-based
[1] = test system: p-p70 S6 Kinase (Thr389) in MCF-7 cells; assay: AlphaLISA Ultra pS6K1 assay; conditions: Homo sapiens, 1.5 h; MCF7 cells, 90 min
Experimental: Example 55: AlphaLISA Ultra pS6K1 Assay
(§1) Assay Protocol: • 1. Seed MCF-7 cells in Corning 3701 plate and incubate for 20˜24 hour. 12,000˜16,000 cells will be seeded in 36 μL medium per well. • 2. Change the culture medium with fresh medium and incubate for another 2 hours. • 3. Add 12 μL (4×) compounds into the cell plate by HAMILTON. Final DMSO concentration is 0.5%. Incubate for 90 minutes. • 4. Aspirate 38 μL by HAMILTON, 10 μL rest per well. • 5. Add 10 μL 2× lysis buffer using HAMILTON; total volume in wells is 20 μL. Allow cells to shake for 30 min. Cover plate by plastic foil and store plate at −80° C. up to analysis. • 6. Thaw cell lysate at RT and transfer 10 μL lysate to assay plate (Optiplate-384). • 7. Add 5 μL acceptor beads into assay plate and incubation for 2 hours • 8. Add 5 μL donor beads and incubation for 2 hours • 9. Count the plate by EnSpire Multimode Plate Reader

[2] = test system: p-Akt 1/2/3 (Ser473) in MCF-7 cells; assay: AlphaLISA Ultra pAKT assay; conditions: Homo sapiens, 1.5 h; MCF7 cells, 90 min
Experimental: Example 56: AlphaLISA Ultra pAKT Assay
as §1, with “1.” for “1. Seed”, “16,000˜20,000” for “12,000˜16,000”, “90 minutes.” for “2 hours.”, “Incubate for 90 minutes. • 4.” left out

mTORC1 over mTORC2 = mTORC1 over mTORC2 selectivity by comparing pS6K1 and pAKT IC50; conditions: by comparing pS6K1 and pAKT IC50, 90 min
Experimental: as §1, with “Reader […]” for “Reader”
Compounds that are not selective by comparing pS6K1 and pAKT IC50 by kinase assays are indicated by “NO” in the “mTORC1 selective @ 90 min” column of Table 4. […] Compounds that are not selective at the 24 hrs mark are indicated by “NO” in the “mTORC1 selective @ 24 hrs” column of Table 4. “N/A” stands for “not assayed” and “N/C” stands for “not calculated”.

SMILES	pIC50 [1]	pIC50 [2]	mTORC1 selective @ 90 min (mTORC1 over mTORC2)
CO[C@@H]1C[C@H](C[C@@H](C)[C@@H]2CC(=O)[C@H](C)/C=C(\C)[C@@H](O)[C@@H](OC)C(=O)[C@H](C)C[C@H](C)/C=C/C=C/C=C(\C)[C@H](OCCOC3COC3)C[C@@H]3CC[C@@H](C)[C@@](O)(O3)C(=O)C(=O)N3CCCC[C@H]3C(=O)O2)CC[C@H]1OC(=O)NCCN1CCOCC1 [I-20, [(42S,44R,46R)-4-[(2R)-2-[(27E,29E,31E,32E,38R,39S,40R,41R,43S,45S,47R,48S,50R,51R,61R)-50,61-dihydroxy-51-methoxy-38,39,40,41,52,53-hexamethyl-47-[2-(oxetan-3-yloxy)ethoxy]-54,55,56,57,58-pentaoxo-75,76-dioxa-64-azatricyclohexatriaconta-27,29,31(52),32(53)-tetraen-48-yl]propyl]-46-methoxy-44-cyclohexyl] N-(2-morpholinoethyl)carbamate]	8.00 to 9.00	≤ 6.00	Yes
CO[C@@H]1/C(C)=C/[C@@H](C)C(=O)C[C@@H]([C@H](C)C[C@@H]2CC[C@@H](OC)[C@H](OC)C2)OC(=O)[C@@H]2CCCCN2C(=O)C(=O)[C@]2(O)O[C@@H](CC[C@H]2C)CC(OCCOCCN)/C(C)=C/C=C/C=C/[C@@H](C)C[C@@H](C)C(=O)[C@@H]1OC (stereo partly drawn) [I-22]	6.00 to 7.00	≤ 6.00	Yes

More lines, main results first:

pIC50 [1]	pIC50 [2]	SMILES	mTORC1 selective @ 90 min (mTORC1 over mTORC2)
8.00 to 9.00	≤ 6.00	CO[C@@H]1C[C@H](C[C@@H](C)[C@@H]2CC(=O)[C@H](C)/C=C(\C)[C@@H](O)[C@@H](OC)C(=O)[C@H](C)C[C@H](C)/C=C/C=C/C=C(\C)C(OCCOC3COC3)C[C@@H]3CC[C@@H](C)[C@@](O)(O3)C(=O)C(=O)N3CCCC[C@H]3C(=O)O2)CC[C@H]1OCCCN1CCN(C)CC1 (stereo partly drawn) [I-15, (28E,30E,32E,33E,40R,41S,42R,43R,45S,47S,50S,52R,53R,62R)-52,62-dihydroxy-53-methoxy-50-[(1R)-2-[(1S,3R,4R)-3-methoxy-4-[3-(4-methylpiperazin-1-yl)propoxy]cyclohexyl]-1-methyl-ethyl]-40,41,42,43,54,55-hexamethyl-49-[2-(oxetan-3-yloxy)ethoxy]-74,75-dioxa-65-azatricyclohexatriaconta-28,30,32(54),33(55)-tetraene-56,57,58,59,60-pentone]	Yes
8.00 to 9.00	≤ 6.00	CO[C@@H]1C[C@H](C[C@@H](C)[C@@H]2CC(=O)[C@H](C)/C=C(\C)[C@@H](O)[C@@H](OC)C(=O)[C@H](C)C[C@H](C)/C=C/C=C/C=C(\C)[C@H](OCCOC3COC3)C[C@@H]3CC[C@@H](C)[C@@](O)(O3)C(=O)C(=O)N3CCCC[C@H]3C(=O)O2)CC[C@H]1OC(=O)N(C)CCN1CCOCC1 [I-17, [(43S,45R,47R)-4-[(2R)-2-[(28E,30E,32E,33E,39R,40S,41R,42R,44S,46S,48R,49S,51R,52R,62R)-51,62-dihydroxy-52-methoxy-39,40,41,42,53,54-hexamethyl-48-[2-(oxetan-3-yloxy)ethoxy]-55,56,57,58,59-pentaoxo-76,77-dioxa-64-azatricyclohexatriaconta-28,30,32(53),33(54)-tetraen-49-yl]propyl]-47-methoxy-45-cyclohexyl] N-methyl-N-(2-morpholinoethyl)carbamate]	Yes
> 9.00	≤ 6.00	CO[C@@H]1C[C@H](C[C@@H](C)[C@@H]2CC(=O)[C@H](C)/C=C(\C)[C@@H](O)[C@@H](OC)C(=O)[C@H](C)C[C@H](C)/C=C/C=C/C=C(\C)C(OCCOC3COC3)C[C@@H]3CC[C@@H](C)[C@@](O)(O3)C(=O)C(=O)N3CCCC[C@H]3C(=O)O2)CC[C@H]1OC(=O)NCCN1CCOCC1 (stereo partly drawn) [I-19, [(42S,44R,46R)-4-[(2R)-2-[(27E,29E,31E,32E,38R,39S,40R,41R,43S,45S,48S,50R,51R,61R)-50,61-dihydroxy-51-methoxy-38,39,40,41,52,53-hexamethyl-47-[2-(oxetan-3-yloxy)ethoxy]-54,55,56,57,58-pentaoxo-75,76-dioxa-64-azatricyclohexatriaconta-27,29,31(52),32(53)-tetraen-48-yl]propyl]-46-methoxy-44-cyclohexyl] N-(2-morpholinoethyl)carbamate]	Yes
